Where two headings read alike, the source gives them in different places.
Key:
[1] = system: ethionine-induced pancreatitis (serum amylase); assay: Effect on serum amylase elevation in ethionine-induced severe pancreatitis; format: in vivo, female BALB/c mice; conditions: for serum amylase level, 0 Hr: 0 Hr (start of ethionine-supplemented food, before dosing at 12 h); for serum amylase level, 0 Hr / serum amylase level, 24 Hr / serum amylase level, 48 Hr: p.o., EPC-K 141 mg/10 ml/kg, camostat 100 mg/10 ml/kg, mean ± S.E.; for serum amylase level, 24 Hr: 24 h after beginning of ethionine-supplemented food; for serum amylase level, 48 Hr: 48 h after beginning of ethionine-supplemented food, *1 (EPC-K): p < 0.01 vs distilled water
Protocol: The therapeutic efficacy of the compound was tested in ethionine-induced pancreatitis which is a model of severe human pancreatitis. The efficacy evaluation was based on the degree of inhibition of the release of amylase into blood which is an indicator of pancreatitis.
(1) Investigational Substance
L-Ascorbyl DL-α-tocopheryl phosphate potassium (briefly, EPC-K) 141 mg/10 ml/kg, p.o.
Camostat monomethanesulfonate (Ono Pharmaceutical) 100 mg/10 ml/kg, p.o.
Animals used: Thirty female BALB/c mice weighing about 18 g as purchased from Japan SLC were used in this experiment. The mice were accommodated in an animal room controlled at 24°±4° C. and 55±15% R. H. and while the animals in the ethionine-induced pancreatitis groups were given low-choline, 0.54 ethionine-supplemented food (prepared by SLC) ad libitum, the animals in the untreated control group were given Labo MR Stock (tradename) (Nihon Nosan Kogyo) ad libitum. Water was freely available for animals in the ethionine pancreatitis groups and the untreated group. The mice were deprived of food 12 hours before commencement of feeding.
Method: Each test substance was administered 12 hours after the beginning of intake of ethionine-supplemented food. Blood sampling was made 24 and 48 hours after the beginning of intake of ethionine-supplemented food and the serum amylase levels were determined.

LD50 (toxicity) = conditions: rat, in vivo, rats

Row | Structure (SMILES) | serum amylase level, 0 Hr [1] [mU/ml] | serum amylase level, 24 Hr [1] [mU/ml] | inhibition of serum amylase elevation (in words) ([1]; 48 h, compared with distilled water group) | serum amylase level, 48 Hr [1] [mU/ml] | LD50 (LD50 (toxicity); iv, i.v., read-out: LD50 i.v.) [mg/kg] | LD50 (LD50 (toxicity); po, p.o., read-out: LD50 p.o.) [mg/kg]
1 | CN(C)C(=O)COC(=O)Cc1ccc(OC(=O)c2ccc(NC(=N)N)cc2)cc1 [Camostat monomethanesulfonate] | 13978 ± 1012 | 12628 ± 1542 | no inhibitory effect on amylase elevation | 36288 ± 13921 | – | –
2 | Cc1c(C)c2c(c(C)c1OP(=O)(O)OC1=C(O)[C@@H]([C@@H](O)CO)OC1=O)CCC(C)(CCCC(C)CCCC(C)CCCC(C)C)O2 (mixture of isomers) [EPC-K, L-Ascorbyl DL-α-tocopheryl phosphate potassium] | 14573 ± 3132 | 12926 ± 2217 | – | 16257 ± 9763 | ≥ 100 | ≥ 5000

Source: patent publication US5650404A, “Therapeutic composition for pancreatitis” (Senju Pharmaceutical Co., Ltd., priority 1994, dated 1997)
